We go through two compounds from paper PMC8406809 (Antimicrobial Agents and Chemotherapy, 2021).

One data set concerns Huh7.5 cells. In kind it is cell-based, human. As to conditions: higher concentrations marked # in Fig. 4A.
The test system of data set [1] is original-SARS2 (P2VeroE6 virus, SARS-CoV-2_DK-AHH1). Nature of the data set: microbe, parasite or virus in culture. Type of data set: cell-based.

Regarding `COc1c(NC(=O)C(=O)c2ccc(OCCN3CCOCC3)c3ccccc23)cc(C(C)(C)C)cc1NS(C)(=O)=O` [ITX5061], in the data set with Huh7.5 cells, the cytotoxicity entry is reported as “cytotoxic”.
For orientation: EC50 means the midpoint of the concentration-response curve. Read a low EC50 as higher potency in that assay. For `CCC(CC)COC(=O)[C@H](C)N[P@](=O)(OC[C@H]1O[C@@](C#N)(c2ccc3c(N)ncnn23)[C@H](O)[C@@H]1O)Oc1ccccc1` [Remdesivir], in data set [1], the “fold-higher activity in Huh7.5 cells than in Vero E6 cells” value is roughly 50 fold. Moreover, the EC50 in data set [1] (Severe acute respiratory syndrome coronavirus 2, Huh7.5) was 30 nM.
